From patent US20230092895A1, “TANDEM CD19 CAR-BASED COMPOSITIONS AND METHODS FOR IMMUNOTHERAPY” (Obsidian Therapeutics, Inc., priority 2019, published 2023)
Where two headings read alike, the source gives them in different places. Each block holds one compound with its values, some of them ahead of it.

Assays:
[1] = human, cited from earlier work
HCT-116 cells = conditions: 24 hours; for IL15Ra mean fluorescent intensity (MFI): HCT-116 cells stably expressing OT-001111
Description: HCT-116 cells stably expressing the OT-001111 (OT-IL15-009) cassette were incubated with 0 to 250 μM TMP ligand (or DMSO) for 24 hours. Membrane bound IL15-IL15Ra levels were assessed using flow cytometry detection of IL15Ra.

[2] = tested on: GFP positive (IL12 negative) T cells; test: In vivo T cell phenotype: GFP positive cells co-transferred with CD19 CAR-IL12 cells, FACS markers, plasma IL12; design: species or system NSG mice
Description: IL12-transduced T cells have a Th1-skewed phenotype in vitro, i.e. produce IFN gamma). To assess phenotypic effects of IL12 in vivo, GFP positive (IL12 negative) cells were generated and co-transferred with CD19 CAR-IL12 transduced cells or CD19 alone or IL12 alone cells. Nalm 6 tumor bearing NSG mice were injected with 8 million GFP positive cells, in addition to CD19 CAR-IL12 cells or their corresponding monocistronic constructs. The groups utilized in this study included, 1e^6 empty vector expressing T cells plus 8e^6 GFP positive cells, 1e^6 OT-001407 plus 8e^6 GFP positive cells, 0.1 e^6 OT-001356 plus 8e^6 GFP positive cells, 1e^6 OT-001356 plus 8e^6 GFP positive cells, 0.1e^6 OT-001357 plus 8e^6 GFP positive cells, 1e^6 OT-001357 plus 8e^6 GFP positive cells, and 1e^6 OT-001442 plus 8e^6 GFP positive cells.
Animals were bled on day 3, day 5, day 7 and euthanized at day 12. Blood, spleen, and bone marrow were collected for analysis of T cell number and CD8 frequency. Phenotypic T cell markers such as Granzyme, Tbet, pSTAT4, CD25, and ICOS were analyzed in the GFP positive cells using FACS. […] By day 12, post transfer, the levels of Granzyme B, Tbet, pSTAT4, CD25 and ICOS levels increased in the blood of the mice injected with the CD19 CAR-IL12 tandem constructs. ANOVA test for significance was p<0.0001 for all markers. […]

Compound: COc1cc(Cc2cnc(N)nc2N)cc(OC)c1OC [TMP, Trimethoprim]
TMP maximum peak levels ([1]; 150 mg/m2 IV every 8 hours): 17 to 34 µM | TMP steady state levels ([1]; 80-160 mg BID PO): 1 to 6 µM | TMP concentration resulting in IL15Ra MFI levels above DMSO controls (HCT-116 cells; HCT-116 stably expressing OT-001111): 0.0032 µM | IL15Ra mean fluorescent intensity (MFI) (HCT-116 cells; TMP 0.00064 μM): 304 | IL15Ra mean fluorescent intensity (MFI) (HCT-116 cells; TMP 0.0032 μM): 469 | IL15Ra mean fluorescent intensity (MFI) (HCT-116 cells; TMP 0.016 μM): 666 | IL15Ra mean fluorescent intensity (MFI) (HCT-116 cells; TMP 0.08 μM): 769 | IL15Ra mean fluorescent intensity (MFI) (HCT-116 cells; TMP 0.4 μM): 1001 | IL15Ra mean fluorescent intensity (MFI) (HCT-116 cells; TMP 2 μM): 1104 | IL15Ra mean fluorescent intensity (MFI) (HCT-116 cells; TMP 10 μM): 1204 | IL15Ra mean fluorescent intensity (MFI) (HCT-116 cells; TMP 50 μM): 1344 | IL15Ra mean fluorescent intensity (MFI) (HCT-116 cells; TMP 250 μM): 1576

EC 50 of IL12 in plasma ([2]; mouse, in vivo): ~0.1 ng/mL
Compound: IL12: heterodimeric protein of two subunits (p35, p40); cytokine
level of IL12 sufficient to induce phenotypic changes ([2]; plasma, markers and IFN gamma): 200 pg/mL
